Test results published in patent US6323340A, “Phthalocyanine compound, method for production thereof, and near infrared absorption dye using the compound” (Nippon Shobukai Co., Ltd., priority 1999, dated 2001).

How the values were obtained:
[1] = maximum absorption wavelength and absorptivity coefficient in toluene (spectrophotometer); assay type: physicochemical; conditions: for Absorptivity Coefficient ε: at maximum absorption wavelength
Method: By the use of a spectrophotometer (Shimadzu Seisakusho Ltd., UV-3100), the phthalocyanine compound obtained in this example [VOPc(2,5-Cl2 PhO)8 (2,6-Br2 -4-CH3 PhO)4 {Ph(CH3)CHNH}3 F] was tested for the maximum absorption wavelength and the absorptivity coefficient in toluene.

[2] = transmittance to the visible ray of chloroform solution (JIS R3106); assay type: physicochemical; conditions: 1 cm quartz cell, lowest transmittance at 750 to 1050 nm set to 5 to 6%
Method: In a quartz cell of 1 cm, this phthalocyanine compound was diluted with chloroform until the lowest value of the transmittance at 750 to 1050 nm reached a level in the range of 5 to 6%.

[3] = solubility in toluene and methylethyl ketone at room temperature; conditions: 25° C.
Method: At a room temperature (25° C.), the phthalocyanine compound was gradually dissolved in each the solutions of toluene and methylethyl ketone (MEK) (each 10 ml in volume). The solutions in the process of dissolving the compound were visually examined to find the finally dissolved amounts of the compound, i.e. the concentrations (solubility) of the phthalocyanine compound as a solute in the saturated solutions.

Substance	Maximum Absorption Wavelength [1] [nm]	Absorptivity Coefficient ε [1]	Transmittance to Visible Ray [2] [%]	Solubility MEK ([3]; methylethyl ketone)	Solubility Toluene ([3]; toluene)
VOPc(4-CNPhO)8 (2,6-Br2 -4-CH3 PhO)4 {Ph(CH3)CHNH}3 F [Example 5]	836	72000	80	–	–
VOPc(2,6-Cl2 PhO)8 (2,6-(CH3)2 PhO)4 {Ph(CH3)CHNH}3 F [Example 4]	835	92000	83	–	–
VOPc(2,5-Cl2 PhO)8 (2,6-Br2 -4-CH3 PhO)4 {Ph(CH3)CHNH}3 F [Example 1]	835	76000	79	–	–
octafluoro-octakisanilino oxyvanadium phthalocyanine [Control 2, reference compound]	860	–	48	–	–
VOPc(2,5-Cl2 PhO)8 (2,6-Br2 -4-CH3 PhO)4 {PhCH2 NH}3 F [Example 2]	840	68000	81	–	–
VOPc(PhNH)8 (PhS)8 [Control 1, reference compound]	950	–	50	–	–
VOPc(2,5-Cl2 PhO)8 (2,6-(CH3)2 PhO)4 {Ph(CH3)CHNH}3 F [Example 3]	834	84000	82	–	–

Continued, in another order:

Maximum Absorption Wavelength [1] [nm]	Absorptivity Coefficient ε [1]	Transmittance to Visible Ray [2] [%]	Substance	Solubility MEK ([3]; methylethyl ketone)	Solubility Toluene ([3]; toluene)
834	83000	81	VOPc(4-CNPhO)8 (2,6-(CH3)2 PhO)4 {Ph(CH3)CHNH}3 F [Example 6]	.circleincircle. (a solubility of not less than 5% by weight)	.circleincircle. (a solubility of not less than 5% by weight)
810	154000	85	CuPc(2,5-Cl2 PhO)8 (2,6-(CH3)2 PhO)4 (PhCH2 NH)4 [Example 8]	–	–
880	128200	83	VOPc(2,5-Cl2 PhO)8 (2,6-(CH3)2 Pho)4 (PhCH2 NH)4 [Example 7]	–	–
920	130800	79	VOPc(PhS)8 (2,6-(CH3)2 PhO)4 (PhCH2 NH)4 [Example 9]	–	–
